Experiment: Strength and degradation profile of tigecycline 20 mg/mL bulk solutions by reversed phase HPLC (effect of temperature, time, pH, dissolved oxygen; Runs A to O)
Assay type: physicochemical
Conditions: pH 7.7, Oxygen = 0.1 mg/L
Method: The contents of the sample vials are dissolved in diluent. The sample solution is diluted, if necessary, and chromatographed on a reversed phase column using gradient elution. Impurities are determined by comparing the impurity peak areas in the sample preparation chromatogram to the average area of tigecycline peaks in the standard preparation chromatograms obtained concomitantly.
Chromatographic Column—Length about 15 cm, inside diameter about 4.6 mm, packed with Inertsil ODS2, 5 μm size particles or equivalent.
Detector—Ultraviolet spectrophotometric detector capable of operating at 248 nm with a sensitivity of about 0.5 absorbance units full scale.
The results of additional studies to investigate the effect of processing parameters such as temperature, time, and dissolved oxygen content on the purity profile of tigecycline solutions using the following materials, methods and procedures are presented in Tables A to O.
The experiments were run in plastic glove bags under normal laboratory light conditions. Plastic glove boxes will be used to control the headspace of the beakers. The batch size was 200 mL. • 1. Prepare the glove bag with a mixture of nitrogen and air to achieve an oxygen level in the solution as per the design. • 2. Place the jacketed beaker on the magnetic stirrer. Connect it to the cooler. Set the cooler to the desired set point. • 3. Add 200 mL of SWFI in to the beaker. Allow equilibrating. Measure the temperature and oxygen content. When it reaches the desired condition, add accurately weighed API and mix until dissolved. If necessary use spatula to aid dissolution. For pH adjustments, use 4 mL of either 0.1N NaOH or 0.1N HCl and 196 mL of WFI for manufacture. • 4. After complete dissolution, Transfer about 5.5 mL of Solution in vials and stopper them. These vials will be stoppered at the appropriate headspace conditions. Place the vials in appropriate temperature conditions. • 5. Sample the vials at 1, 4, 8, 10, 12 and 24 hours. Send the samples for analysis. Freeze the 10, 12 and 24 samples at −20° C. for analysis the following day. • 6. Measure pH and record color of the solution at each time point. Results
The 1-hour samples were taken directly from the beakers. Samples for later time points were collected in stoppered vials processed in the atmosphere of the bag in order to simulate the headspace conditions then placed in water baths or refrigerator to maintain there respective temperature conditions. This was done to maintain safety in the lab. Disposable plastic glove bags require constant flow of a mixture of nitrogen and air to maintain headspace oxygen level that will result in the desired dissolved oxygen (DO) content in the sample. The pH of samples was measured at each sample points.
Strength and degradation profile was analyzed by HPLC as described above. […] Degradation was slightly higher at higher temperature condition.

CN(C)c1cc(NC(=O)CNC(C)(C)C)c(O)c2c1C[C@H]1C[C@H]3[C@H](N(C)C)C(O)=C(C(N)=O)C(=O)[C@@]3(O)C(O)=C1C2=O [Tigecycline]
RRT 1.45 (Run #L, 2° C., 12 Hrs): 0.07%
RRT 1.58 (Run #L, 2° C., 12 Hrs): BRL (BRL means below reporting limit (meaning less than 0.05% of tigecycline peak))
RRT 1.64 Mino (Run #L, 2° C., 12 Hrs): 0.14%
RRT 1.67 MW = 556 (Run #L, 2° C., 12 Hrs): BRL (BRL means below reporting limit (meaning less than 0.05% of tigecycline peak))
RRT 1.85 MW = 597 (Run #L, 2° C., 12 Hrs): 0.08%
Strength (Run #L, 2° C., 12 Hrs): 19.448 mg/mL
Total (Run #L, 2° C., 12 Hrs): 0.58%
RRT 0.12 MW = 633 (Run #L, 2° C., 24 Hrs): BRL (BRL means below reporting limit (meaning less than 0.05% of tigecycline peak))
RRT 0.23 MW = 572 (Run #L, 2° C., 24 Hrs): BRL (BRL means below reporting limit (meaning less than 0.05% of tigecycline peak))
RRT 0.50 MW = 601 (Run #L, 2° C., 24 Hrs): BRL (BRL means below reporting limit (meaning less than 0.05% of tigecycline peak))
RRT 0.55 MW = 583 (Run #L, 2° C., 24 Hrs): BRL (BRL means below reporting limit (meaning less than 0.05% of tigecycline peak))
RRT 0.58 (Run #L, 2° C., 24 Hrs): 0.09%
RRT 0.64 9-Amino (Run #L, 2° C., 24 Hrs): BRL (BRL means below reporting limit (meaning less than 0.05% of tigecycline peak))
RRT 0.74 Epimer (Run #L, 2° C., 24 Hrs): 0.21%
RRT 0.76 (Run #L, 2° C., 24 Hrs): BRL (BRL means below reporting limit (meaning less than 0.05% of tigecycline peak))
RRT 0.78 MW = 557 (Run #L, 2° C., 24 Hrs): BRL (BRL means below reporting limit (meaning less than 0.05% of tigecycline peak))
RRT 1.12 (Run #L, 2° C., 24 Hrs): BRL (BRL means below reporting limit (meaning less than 0.05% of tigecycline peak))
RRT 1.45 (Run #L, 2° C., 24 Hrs): 0.08%
RRT 1.58 (Run #L, 2° C., 24 Hrs): BRL (BRL means below reporting limit (meaning less than 0.05% of tigecycline peak))
RRT 1.64 Mino (Run #L, 2° C., 24 Hrs): 0.13%
RRT 1.67 MW = 556 (Run #L, 2° C., 24 Hrs): BRL (BRL means below reporting limit (meaning less than 0.05% of tigecycline peak))
RRT 1.85 MW = 597 (Run #L, 2° C., 24 Hrs): 0.09%
Strength (Run #L, 2° C., 24 Hrs): 19.156 mg/mL
Total (Run #L, 2° C., 24 Hrs): 0.61%
RRT 0.12 MW = 633 (Run #M, 8° C., 1 Hrs): BRL (BRL means below reporting limit (meaning less than 0.05% of tigecycline peak))
RRT 0.23 MW = 572 (Run #M, 8° C., 1 Hrs): BRL (BRL means below reporting limit (meaning less than 0.05% of tigecycline peak))
RRT 0.50 MW = 601 (Run #M, 8° C., 1 Hrs): BRL (BRL means below reporting limit (meaning less than 0.05% of tigecycline peak))
RRT 0.55 MW = 583 (Run #M, 8° C., 1 Hrs): BRL (BRL means below reporting limit (meaning less than 0.05% of tigecycline peak))
RRT 0.58 (Run #M, 8° C., 1 Hrs): 0.08%
RRT 0.64 9-Amino (Run #M, 8° C., 1 Hrs): BRL (BRL means below reporting limit (meaning less than 0.05% of tigecycline peak))
RRT 0.74 Epimer (Run #M, 8° C., 1 Hrs): 0.20%
RRT 0.76 (Run #M, 8° C., 1 Hrs): 0.06%
RRT 0.78 MW = 557 (Run #M, 8° C., 1 Hrs): BRL (BRL means below reporting limit (meaning less than 0.05% of tigecycline peak))
RRT 1.12 (Run #M, 8° C., 1 Hrs): BRL (BRL means below reporting limit (meaning less than 0.05% of tigecycline peak))
RRT 1.45 (Run #M, 8° C., 1 Hrs): BRL (BRL means below reporting limit (meaning less than 0.05% of tigecycline peak))
RRT 1.58 (Run #M, 8° C., 1 Hrs): BRL (BRL means below reporting limit (meaning less than 0.05% of tigecycline peak))
RRT 1.64 Mino (Run #M, 8° C., 1 Hrs): 0.14%
RRT 1.67 MW = 556 (Run #M, 8° C., 1 Hrs): BRL (BRL means below reporting limit (meaning less than 0.05% of tigecycline peak))
RRT 1.85 MW = 597 (Run #M, 8° C., 1 Hrs): BRL (BRL means below reporting limit (meaning less than 0.05% of tigecycline peak))
Strength (Run #M, 8° C., 1 Hrs): 19.270 mg/mL
Total (Run #M, 8° C., 1 Hrs): 0.47%
RRT 0.12 MW = 633 (Run #M, 8° C., 4 Hrs): BRL (BRL means below reporting limit (meaning less than 0.05% of tigecycline peak))
RRT 0.23 MW = 572 (Run #M, 8° C., 4 Hrs): BRL (BRL means below reporting limit (meaning less than 0.05% of tigecycline peak))
RRT 0.50 MW = 601 (Run #M, 8° C., 4 Hrs): BRL (BRL means below reporting limit (meaning less than 0.05% of tigecycline peak))
RRT 0.55 MW = 583 (Run #M, 8° C., 4 Hrs): BRL (BRL means below reporting limit (meaning less than 0.05% of tigecycline peak))
RRT 0.58 (Run #M, 8° C., 4 Hrs): 0.07%
RRT 0.64 9-Amino (Run #M, 8° C., 4 Hrs): BRL (BRL means below reporting limit (meaning less than 0.05% of tigecycline peak))
RRT 0.74 Epimer (Run #M, 8° C., 4 Hrs): 0.23%
RRT 0.76 (Run #M, 8° C., 4 Hrs): 0.06%
RRT 0.78 MW = 557 (Run #M, 8° C., 4 Hrs): BRL (BRL means below reporting limit (meaning less than 0.05% of tigecycline peak))
RRT 1.12 (Run #M, 8° C., 4 Hrs): BRL (BRL means below reporting limit (meaning less than 0.05% of tigecycline peak))
RRT 1.45 (Run #M, 8° C., 4 Hrs): 0.06%
RRT 1.58 (Run #M, 8° C., 4 Hrs): BRL (BRL means below reporting limit (meaning less than 0.05% of tigecycline peak))
RRT 1.64 Mino (Run #M, 8° C., 4 Hrs): 0.08%
RRT 1.67 MW = 556 (Run #M, 8° C., 4 Hrs): BRL (BRL means below reporting limit (meaning less than 0.05% of tigecycline peak))
RRT 1.85 MW = 597 (Run #M, 8° C., 4 Hrs): 0.06%
Strength (Run #M, 8° C., 4 Hrs): 19.340 mg/mL
Total (Run #M, 8° C., 4 Hrs): 0.57%
RRT 0.12 MW = 633 (Run #M, 8° C., 8 Hrs): BRL (BRL means below reporting limit (meaning less than 0.05% of tigecycline peak))
RRT 0.23 MW = 572 (Run #M, 8° C., 8 Hrs): BRL (BRL means below reporting limit (meaning less than 0.05% of tigecycline peak))
RRT 0.50 MW = 601 (Run #M, 8° C., 8 Hrs): BRL (BRL means below reporting limit (meaning less than 0.05% of tigecycline peak))
RRT 0.55 MW = 583 (Run #M, 8° C., 8 Hrs): BRL (BRL means below reporting limit (meaning less than 0.05% of tigecycline peak))
RRT 0.58 (Run #M, 8° C., 8 Hrs): 0.08%
RRT 0.64 9-Amino (Run #M, 8° C., 8 Hrs): BRL (BRL means below reporting limit (meaning less than 0.05% of tigecycline peak))
RRT 0.74 Epimer (Run #M, 8° C., 8 Hrs): 0.24%
RRT 0.76 (Run #M, 8° C., 8 Hrs): 0.06%
RRT 0.78 MW = 557 (Run #M, 8° C., 8 Hrs): BRL (BRL means below reporting limit (meaning less than 0.05% of tigecycline peak))
RRT 1.12 (Run #M, 8° C., 8 Hrs): BRL (BRL means below reporting limit (meaning less than 0.05% of tigecycline peak))
RRT 1.45 (Run #M, 8° C., 8 Hrs): 0.07%
RRT 1.58 (Run #M, 8° C., 8 Hrs): BRL (BRL means below reporting limit (meaning less than 0.05% of tigecycline peak))
RRT 1.64 Mino (Run #M, 8° C., 8 Hrs): 0.11%
RRT 1.67 MW = 556 (Run #M, 8° C., 8 Hrs): BRL (BRL means below reporting limit (meaning less than 0.05% of tigecycline peak))
RRT 1.85 MW = 597 (Run #M, 8° C., 8 Hrs): 0.06%
Strength (Run #M, 8° C., 8 Hrs): 19.238 mg/mL
Total (Run #M, 8° C., 8 Hrs): 0.62%
RRT 0.12 MW = 633 (Run #M, 8° C., 10 Hrs): BRL (BRL means below reporting limit (meaning less than 0.05% of tigecycline peak))
RRT 0.23 MW = 572 (Run #M, 8° C., 10 Hrs): BRL (BRL means below reporting limit (meaning less than 0.05% of tigecycline peak))
RRT 0.50 MW = 601 (Run #M, 8° C., 10 Hrs): BRL (BRL means below reporting limit (meaning less than 0.05% of tigecycline peak))
RRT 0.55 MW = 583 (Run #M, 8° C., 10 Hrs): 0.09%
RRT 0.58 (Run #M, 8° C., 10 Hrs): 0.07%
RRT 0.64 9-Amino (Run #M, 8° C., 10 Hrs): BRL (BRL means below reporting limit (meaning less than 0.05% of tigecycline peak))
RRT 0.74 Epimer (Run #M, 8° C., 10 Hrs): 0.25%
RRT 0.76 (Run #M, 8° C., 10 Hrs): 0.05%
RRT 0.78 MW = 557 (Run #M, 8° C., 10 Hrs): BRL (BRL means below reporting limit (meaning less than 0.05% of tigecycline peak))
